Assay in all cases: NCI-60 cell line screen, 48 h
Assay [1] has as its system K-562 leukemia.
In assay [2] the test system is MCF7 breast.
Assay [3] concerns T-47D breast.
Assay [4] deals with HOP-62 NSCLC.
For assay [5], the system named is NCI-H226 lung.
The test system of assay [6] is M14 melanoma.
The subject of assay [7] is TK-10 renal.
Assay [8] has as its system SW-620 colon.
Assay [9] concerns U251 CNS.
The subject of assay [10] is NCI/ADR-RES ovarian.

Structures are written as SMILES.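 Compound exposure: 48 hours, 5 concentrations, 96-well plates. The concentration for 50% growth inhibition is given as GI50. Definition used: TGI = concentration required for complete inhibition of growth.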

For the compound `Cc1ncc2c(n1)CCC1=C2OS(=O)(=O)CC1N(C)C` (centres undefined), the TGI in assay [1], in [2], in assay [3], in [4], in assay [5] and in [6] was > 100 µM throughout. Besides, the TGI in assay [7], in assay [8] and in assay [9] was > 100 µM each time.

Take `CC(C)OC(=O)NNc1c(Cl)cc(Cl)cc1Cl`: the TGI in [1], in [2], in assay [3], in assay [4], in [6] and in [7] was > 100 µM throughout. In addition, the TGI in assay [10], in [8] and in [9] was > 100 µM throughout.

For `COc1cc2c(cc1OCCCN1CCN(CCCOc3cc4c(cc3OC)C(=O)N3C[C@H](F)C[C@H]3C=N4)CC1)N=C[C@@H]1C[C@@H](F)CN1C2=O`, the GI50 is 0.0269 µM in [1]; < 0.0195 µM in assay [2]; 0.0847 µM in [3]; 0.013 µM in assay [4]; 0.0441 µM in assay [6]; 0.309 µM in assay [7]. The figures for the GI50 in assay [10] and in assay [8] were 9.18 µM and 0.0746 µM, respectively. Further, the TGI was 3.66 µM in assay [1]; > 32.7 µM in assay [2]; > 26.5 µM in assay [3]; 0.0418 µM in assay [4]; 0.198 µM in assay [6]; 3.28 µM in assay [7]. Besides, the TGI was found to be 47.3 µM in assay [10] and 10.4 µM in assay [8].

Regarding `Cc1c(C(=O)Nc2ccc(Oc3ccnc4cc(OCC(C)(C)O)ccc34)c(F)c2)c(=O)n(-c2ccccc2)n1C`, the GI50 in [1] was 0.393 µM; in assay [3], 2.79 µM; in assay [4], 19.4 µM; in [6], 2.47 µM; in assay [7] it was 9.9 µM; in [9], 8.86 µM. Also, the TGI in assay [1] was 15.3 µM; in assay [3], > 100 µM; in assay [4] it was > 100 µM; in [6], > 100 µM; in assay [7] it was > 100 µM; in assay [9], > 100 µM.

Take `COc1ccc(C(=O)c2no[n+]([O-])c2C(=O)c2ccc(OC)cc2)cc1`: the GI50 was 2.36 µM in assay [1]; 4.42 µM in assay [2]; 15.2 µM in [4]; 25.8 µM in assay [5]; 3.5 µM in [6]; 1.41 µM in assay [7]. For the same compound, the GI50 in assay [10] was 10.7 µM; in assay [8] it was 1.89 µM; in [9], 2.53 µM. For the same compound, the TGI was 7.17 µM in assay [1]; 18.2 µM in assay [2]; 29.3 µM in [4]; > 64.3 µM in assay [5]; 11.7 µM in [6]; 2.82 µM in [7]. Also, the results for the TGI in [10], in assay [8] and in assay [9] were 28.7 µM, 3.42 µM and 7.07 µM, respectively.

In the case of `CCOC(=O)CCC(NC(=O)c1ccc(Oc2nc3cc(N)cc(N)c3nc2-c2ccccc2)cc1)C(=O)OCC` (centres undefined), the GI50 is 53.6 µM in [2]; 24.6 µM in assay [3]; 36.6 µM in [4]; 2.94 µM in assay [5]; 40 µM in assay [6]; > 100 µM in assay [7]. Also, the GI50 is 27.5 µM in [10], 29.5 µM in assay [8] and > 100 µM in [9]. The TGI in [2] is > 100 µM; in assay [3], 59.7 µM; in [4], 87.1 µM; in assay [5], 25 µM; in assay [6], > 100 µM; in assay [7], > 100 µM. Also, the TGI in assay [10], in assay [8] and in assay [9] was > 100 µM each time.

For `Cc1ccc(-c2csc3ncnc(Nc4cccc(O)c4)c23)cc1`, the GI50 in [1] is 5.6 µM; in assay [2], 41.6 µM; in assay [3], 44 µM; in assay [4], 21.8 µM; in [5] it was 38.1 µM; in assay [6] it was 17.9 µM. Besides, the figures for the GI50 in assay [10], in assay [8] and in [9] were 24.7 µM, 42.4 µM and 22.5 µM, respectively. The TGI is > 100 µM in [1]; > 100 µM in assay [2]; > 100 µM in [3]; 49.6 µM in assay [4]; > 100 µM in assay [5]; 37.3 µM in assay [6]. Besides, the figures for the TGI in assay [10], in assay [8] and in assay [9] were 60.3 µM, > 100 µM and 58.6 µM, respectively.

With `O=C1OC(=O)c2c1cc1cc3c(cc1c2-c1ccc2c(c1)OCO2)OCO3`, the TGI in [1], in [2], in assay [3], in [5], in assay [6] and in [7] was > 100 µM each time. Besides, the TGI in [10], in assay [8] and in assay [9] was > 100 µM throughout.

`CN(COC(=O)C(C)(C)C)c1nc(N(C)COC(=O)C(C)(C)C)nc(N(C)COC(=O)C(C)(C)C)n1`: the TGI was > 100 µM in assay [1]; > 100 µM in assay [2]; > 100 µM in assay [3]; > 100 µM in assay [4]; > 100 µM in assay [5]; 47.6 µM in assay [6]. Also, the results for the TGI in assay [7], in [10] and in assay [8] were > 100 µM, > 100 µM and 82.2 µM, respectively.

For the compound `Cc1cc(N)c2cc(NC(=O)/C=C\c3ccccc3Cl)ccc2n1`, the GI50 was 0.416 µM in assay [1]; 0.725 µM in assay [4]; 2.01 µM in assay [5]; 0.748 µM in assay [6]; 2.11 µM in [7]; > 24.2 µM in assay [10]. Besides, the GI50 in [8] was 0.214 µM; in assay [9] it was 0.269 µM. Further, the TGI was 1.48 µM in assay [1]; 1.73 µM in [4]; 3.69 µM in assay [5]; 2.02 µM in [6]; 3.69 µM in assay [7]; > 100 µM in assay [10]. The TGI stood at 0.478 µM in assay [8] and 0.724 µM in assay [9].

These data come from PubChem BioAssay (NCI).
